Measured values as given in the NIST ThermoML archive (doi:10.1021/je050414d).
Where “and” joins values, the source holds several entries; their conditions need not be identical. Equal values may be shown once. Numbers after ± are expanded uncertainties.

Assays:
[1] = 101 kPa, Liquid; for viscosity: Capillary tube (Ostwald / Ubbelohde) method
[2] = xn = mol fraction of the nth substance listed; conditions: 101 kPa, Liquid, x2 = 0; for viscosity: Capillary tube (Ostwald / Ubbelohde) method

CCOC(=O)OCC [diethyl carbonate]
mass density ([1]; 293.15 K): 975 ± 1 kg/m3
viscosity ([1]; 293.15 K): 0.801 ± 0.008 mPa·s and 0.8 ± 0.008 mPa·s
mass density ([1]; 298.15 K): 968.97 ± 1.1 kg/m3
viscosity ([1]; 298.15 K): 0.746 ± 0.008 mPa·s
mass density ([1]; 303.15 K): 962.39 ± 1.1 kg/m3
viscosity ([1]; 303.15 K): 0.695 ± 0.008 mPa·s
mass density ([1]; 313.15 K): 952.32 ± 1.2 kg/m3
viscosity ([1]; 313.15 K): 0.61 ± 0.007 mPa·s
mass density ([1]; 323.15 K): 939.78 ± 1.3 kg/m3
viscosity ([1]; 323.15 K): 0.541 ± 0.007 mPa·s
mass density ([1]; 333.15 K): 928.69 ± 1.4 kg/m3
viscosity ([1]; 333.15 K): 0.483 ± 0.007 mPa·s
mass density ([1]; 343.15 K): 916.33 ± 1.6 kg/m3
viscosity ([1]; 343.15 K): 0.435 ± 0.007 mPa·s
mass density ([1]; 353.15 K): 905.02 ± 1.7 kg/m3
viscosity ([1]; 353.15 K): 0.393 ± 0.007 mPa·s
mass density ([1]; 363.15 K): 893.71 ± 1.8 kg/m3
viscosity ([1]; 363.15 K): 0.358 ± 0.007 mPa·s

CO [methanol]
mass density ([1]; 293.15 K): 791.54 ± 2.7 kg/m3
viscosity ([1]; 293.15 K): 0.582 ± 0.007 mPa·s
mass density ([1]; 298.15 K): 786.83 ± 2.8 kg/m3
viscosity ([1]; 298.15 K): 0.55 ± 0.007 mPa·s
mass density ([1]; 303.15 K): 782.12 ± 2.8 kg/m3
viscosity ([1]; 303.15 K): 0.512 ± 0.007 mPa·s
mass density ([1]; 313.15 K): 772.6 ± 2.9 kg/m3
viscosity ([1]; 313.15 K): 0.448 ± 0.007 mPa·s
mass density ([1]; 323.15 K): 762.97 ± 3 kg/m3
viscosity ([1]; 323.15 K): 0.395 ± 0.007 mPa·s
mass density ([1]; 333.15 K): 749.69 ± 3.1 kg/m3
viscosity ([1]; 333.15 K): 0.351 ± 0.007 mPa·s

CO [methanol] + CCOC(=O)OCC
viscosity ([2]; 293.15 K): 0.582 ± 0.007 mPa·s
mass density ([2]; 293.15 K): 791.54 ± 2.7 kg/m3
viscosity ([2]; 298.15 K): 0.55 ± 0.007 mPa·s
mass density ([2]; 298.15 K): 786.83 ± 2.8 kg/m3
viscosity ([2]; 303.15 K): 0.512 ± 0.007 mPa·s
mass density ([2]; 303.15 K): 782.12 ± 2.8 kg/m3
viscosity ([2]; 313.15 K): 0.448 ± 0.007 mPa·s
mass density ([2]; 313.15 K): 772.6 ± 2.9 kg/m3
viscosity ([2]; 323.15 K): 0.395 ± 0.007 mPa·s
mass density ([2]; 323.15 K): 762.97 ± 3 kg/m3
viscosity ([2]; 333.15 K): 0.351 ± 0.007 mPa·s
mass density ([2]; 333.15 K): 749.69 ± 3.1 kg/m3

CC(C)O [propan-2-ol]
mass density ([1]; 293.15 K): 785.28 ± 2.8 kg/m3
viscosity ([1]; 293.15 K): 2.382 ± 0.016 mPa·s
mass density ([1]; 298.15 K): 780.69 ± 2.8 kg/m3
viscosity ([1]; 298.15 K): 2.069 ± 0.014 mPa·s
mass density ([1]; 303.15 K): 776.15 ± 2.9 kg/m3
viscosity ([1]; 303.15 K): 1.743 ± 0.013 mPa·s
mass density ([1]; 313.15 K): 766.34 ± 3 kg/m3
viscosity ([1]; 313.15 K): 1.288 ± 0.01 mPa·s
mass density ([1]; 323.15 K): 755.66 ± 3 kg/m3
viscosity ([1]; 323.15 K): 1.002 ± 0.009 mPa·s
mass density ([1]; 333.15 K): 745.51 ± 3.1 kg/m3
viscosity ([1]; 333.15 K): 0.789 ± 0.008 mPa·s
mass density ([1]; 343.15 K): 735.02 ± 3.2 kg/m3
viscosity ([1]; 343.15 K): 0.626 ± 0.007 mPa·s

CC(C)O [propan-2-ol] + CCOC(=O)OCC
viscosity ([2]; 293.15 K): 2.382 ± 0.016 mPa·s
mass density ([2]; 293.15 K): 785.28 ± 2.8 kg/m3
viscosity ([2]; 298.15 K): 2.069 ± 0.014 mPa·s
mass density ([2]; 298.15 K): 780.69 ± 2.8 kg/m3
viscosity ([2]; 303.15 K): 1.743 ± 0.013 mPa·s
mass density ([2]; 303.15 K): 776.15 ± 2.9 kg/m3
viscosity ([2]; 313.15 K): 1.288 ± 0.01 mPa·s
mass density ([2]; 313.15 K): 766.34 ± 3 kg/m3
viscosity ([2]; 323.15 K): 1.002 ± 0.009 mPa·s
mass density ([2]; 323.15 K): 755.66 ± 3 kg/m3
viscosity ([2]; 333.15 K): 0.789 ± 0.008 mPa·s
mass density ([2]; 333.15 K): 745.51 ± 3.1 kg/m3
viscosity ([2]; 343.15 K): 0.626 ± 0.007 mPa·s
mass density ([2]; 343.15 K): 735.02 ± 3.2 kg/m3

Cc1ccccc1 [toluene]
mass density ([1]; 298.15 K): 862.01 ± 2 kg/m3
viscosity ([1]; 298.15 K): 0.554 ± 0.007 mPa·s
mass density ([1]; 303.15 K): 858.32 ± 2.1 kg/m3
viscosity ([1]; 303.15 K): 0.525 ± 0.007 mPa·s
mass density ([1]; 313.15 K): 848.92 ± 2.2 kg/m3
viscosity ([1]; 313.15 K): 0.47 ± 0.007 mPa·s
mass density ([1]; 323.15 K): 838.75 ± 2.3 kg/m3
viscosity ([1]; 323.15 K): 0.423 ± 0.007 mPa·s
mass density ([1]; 333.15 K): 829.93 ± 2.3 kg/m3
viscosity ([1]; 333.15 K): 0.385 ± 0.007 mPa·s
mass density ([1]; 343.15 K): 820.3 ± 2.4 kg/m3
viscosity ([1]; 343.15 K): 0.35 ± 0.007 mPa·s
mass density ([1]; 353.15 K): 810.54 ± 2.5 kg/m3
viscosity ([1]; 353.15 K): 0.31 ± 0.006 mPa·s
mass density ([1]; 363.15 K): 797.68 ± 2.6 kg/m3
viscosity ([1]; 363.15 K): 0.286 ± 0.006 mPa·s

Cc1ccccc1 [toluene] + CCOC(=O)OCC
viscosity ([2]; 298.15 K): 0.554 ± 0.007 mPa·s
mass density ([2]; 298.15 K): 862.01 ± 2 kg/m3
viscosity ([2]; 303.15 K): 0.525 ± 0.007 mPa·s
mass density ([2]; 303.15 K): 858.32 ± 2.1 kg/m3
viscosity ([2]; 313.15 K): 0.47 ± 0.007 mPa·s
mass density ([2]; 313.15 K): 848.92 ± 2.2 kg/m3
viscosity ([2]; 323.15 K): 0.423 ± 0.007 mPa·s
mass density ([2]; 323.15 K): 838.75 ± 2.3 kg/m3
viscosity ([2]; 333.15 K): 0.385 ± 0.007 mPa·s
mass density ([2]; 333.15 K): 829.93 ± 2.3 kg/m3
viscosity ([2]; 343.15 K): 0.35 ± 0.007 mPa·s
mass density ([2]; 343.15 K): 820.3 ± 2.4 kg/m3
viscosity ([2]; 353.15 K): 0.31 ± 0.006 mPa·s
mass density ([2]; 353.15 K): 810.54 ± 2.5 kg/m3
viscosity ([2]; 363.15 K): 0.286 ± 0.006 mPa·s
mass density ([2]; 363.15 K): 797.68 ± 2.6 kg/m3
